The record followed here is US20130274174A1, “THERAPEUTIC COMBINATION OF DAPTOMYCIN AND PROTEIN SYNTHESIS INHIBITOR ANTIBIOTIC, AND METHODS OF USE” (priority 2011, published 2013).

SMILES strings stand for the structures.

Assay in all cases: FIC checkerboard broth microdilution
Holding throughout (format): cell-based

Test [1] has as its system Streptococcus pneumoniae 880. The note with it: agent alone. The protocol: (§1) Test articles of stock solutions of daptomycin (Cubist, lot MCB2007) and TR-700 were prepared at 40 times the final target concentration in DMSO:water (1:1). DMSO was added first, the solutions were allowed to stand for 60 minutes and then the water was added. TR-700 formed a precipitate above 1280 μg/ml; therefore, this was the highest concentration used. […] The final DMSO concentration was 2.5%. The final drug concentrations in the FIC assay plates were set to bracket the MIC value of each test article for each test organism, unless the strain was totally resistant to the test article.
(§2) The test organisms were originally received from clinical sources, or from the American Type Culture Collection. Upon receipt in our laboratory, the isolates were streaked onto the appropriate growth medium: Tryptic Soy Agar II (Becton Dickinson, Sparks, Md.) supplemented with 5% defibrinated sheep blood for streptococci, and unsupplemented Tryptic Soy Agar II for all other organisms. Colonies were harvested from these plates and a cell suspension was prepared in Tryptic Soy Broth (Becton Dickinson) containing cryoprotectant. Aliquots were then frozen at −80° C. On the day prior to assay, the frozen seeds of the organisms to be tested in that session were thawed and streaked for isolation onto the appropriate agar medium plates and incubated overnight at 35° C. The test organisms were: • Staphylococcus aureus 2053 (methicillin-resistant) • Enterococcus faecalis 795 (vancomycin-susceptible) • Streptococcus pyogenes 717 • Streptococcus pneumoniae 880 (penicillin-resistant) • Escherichia coli 102 (ATCC 25922)
(§3) Streptococci were tested in Mueller Hinton II Broth (Becton Dickinson; Lot 7024879 and 7143673) supplemented with 2% lysed horse blood (Cleveland Scientific, Bath, Ohio; Lot H10472). All other organisms were tested in Mueller Hinton II Broth. The broth was prepared at 1.05× normal weight/volume to offset the 5% volume of the drugs in the final test plates.
(§4) FIC values were determined using a broth microdilution method previously described. See, Sweeney, M T and Zurenko, G E. 2003. In vitro activities of linezolid combined with other antimicrobial agents against staphylococci, enterococci, pneumococci and selected Gram-negative organisms. Antimicrob. Agents Chemother. 47:1902-1906. Automated liquid handlers (Multidrop 384, Labsystems, Helsinki, Finland; Biomek 2000 and Multimek 96, Beckman Coulter, Fullerton Calif.) were used to conduct serial dilutions and liquid transfers.
(§5) The wells (columns 2-12) of standard 96-well microdilution plates (Falcon 3918) were filled with 150 μL of 50% DMSO using the Multidrop 384. Column 1 wells were filled with 300 μl of the 40× stock solutions. […]

Test [2] deals with Staphylococcus aureus 2053 (MRSA). Conditions: agent alone. On the procedure: as §1, §2, §3, §4, §5
For test [3], the system named is Streptococcus pyogenes 717. The protocol:
as §1, §2, §3, §4, §5

Test [4] concerns Enterococcus faecalis 795 (VSE). Conditions: agent alone. The protocol: as §1, §2, §3, §4, §5

The MIC is the least concentration at which growth counts as inhibited. In the case of `Cn1nnc(-c2ccc(-c3ccc(N4C[C@H](CO)OC4=O)cc3F)cn2)n1` [TR-700, Tedizolid], the minimum inhibitory concentration (MIC) in test [1] came out at 0.25 mg/L; in test [2] it was 0.5 mg/L; in test [3] it was 0.125 mg/L; in test [4], 0.5 mg/L.
